Tested on: Ba/F3 cells expressing EGFR Exon20 ins NPH
Test: Ba/F3 proliferation suppression activity, cells expressing EGFR Exon20 ins NPH
Type: cell-based
Settings: Mus musculus, BaF3, 72 hours, CellTiter-Glo
Method: A following experiment was carried out to evaluate the suppression activity of the compounds according to the present invention against the proliferation of Ba/F3 which expresses EGFR mutations.
For the Ba/F3 cells, a RPMI-1640 medium containing 10% FBS and 5 ng/ml IL-3 (R&D Systems) was used. The transduced Ba/F3 cells were cultured in a medium, which is same as the above medium, but 1 ug/ml puromycin (Invitrogen) was additionally added to.
24 hours before the treatment of the cells with the compounds, 3000 to 5000 cells were distributed into each well of a white clear bottom 96 well plate (Corning). The compounds were diluted in a dimethyl sulfoxide (e.g. dilution ratio of 3:1 and total 12 concentrations) and then injected by 0.5 ul respectively, such that a final concentration amounted to 0.3 nM to 50 uM. 72 hours after the treatment with the compounds, the measurement of live cells was made in such way that these cells were stored for 10 minutes at a room temperature using a CellTiter-Glo luminescent cell-viability reagent (Promega) and then their luminescence intensities were measured using a reader (i.e. Synergy Neo, Biotek). Each test was repeated three times.
resulting values were calculated as a cell growth ratio (%) compared to a control. Then, the graphs were drawn and the […] values were calculated by using a program, GraphPad Prism version 5.0.

Row | SMILES | GI50 [nM]
1 | C=CC(=O)Nc1cc(Nc2cc(N3OCC[C@@H]3c3ccc(F)c(C(F)(F)F)c3)ncn2)c(OC)cc1N1CCC(N(CC)CC)CC1 [Compound 47] | < 50
2 | C=CC(=O)Nc1cc(Nc2cc(N3OCC[C@@H]3c3ccc(F)c(C(F)(F)F)c3)ncn2)c(OC)cc1N1CCC(N2CCC2)CC1 [Compound 48] | < 50
3 | C=CC(=O)Nc1cc(Nc2cc(N3OCC[C@@H]3c3ccc(F)c(C(F)(F)F)c3)ncn2)c(OC)cc1N1CCC(N2CCN(C3CC3)CC2)CC1 [Compound 49] | < 50
4 | C=CC(=O)Nc1cc(Nc2cc(N3OCCC3c3cc(Cl)cc(C(F)(F)F)c3)ncn2)c(OC)cc1N1CCN(CC)CC1 (stereo not drawn) [Compound 50] | 50 to 500
5 | C=CC(=O)Nc1cc(Nc2cc(N3OCCC3c3cc(Cl)cc(C(F)(F)F)c3)ncn2)c(OC)cc1N1CCC(N2CCN(C3CC3)CC2)CC1 (stereo not drawn) [Compound 51] | 50 to 500
6 | C=CC(=O)Nc1cc(Nc2cc(N3OCC[C@@H]3c3ccc(F)c(C(F)(F)F)c3)ncn2)c(OC)cc1N1C[C@@H]2C[C@H]1CO2 [Compound 54] | 50 to 500
7 | C=CC(=O)Nc1cc(Nc2cc(N3OCC[C@@H]3c3ccc(F)c(C(F)(F)F)c3)ncn2)c(OC)cc1N1CCO[C@@H](C)C1 [Compound 56] | 50 to 500
8 | C=CC(=O)Nc1cc(Nc2cc(N3OCC[C@@H]3c3ccc(F)c(C(F)(F)F)c3)ncn2)c(OC)cc1N1CCO[C@H](C)C1 [Compound 57] | 50 to 500
9 | C=CC(=O)Nc1cc(Nc2cc(N3OCC[C@@H]3c3ccc(F)c(C(F)(F)F)c3)ncn2)c(OC)cc1N1CCC(N2CCO[C@H](C)C2)CC1 [Compound 59] | < 50
10 | C=CC(=O)Nc1cc(Nc2cc(N3OCC[C@@H]3c3ccc(F)c(C(F)(F)F)c3)ncn2)c(OC)cc1N1CCOCC1 [Compound 63] | 50 to 500
11 | C=CC(=O)Nc1cc(Nc2cc(N3OCC[C@@H]3c3ccc(F)c(C(F)(F)F)c3)ncn2)c(OC)cc1N1CCC(N2CCOCC2)CC1 [Compound 64] | < 50
12 | C=CC(=O)Nc1cc(Nc2cc(N3OCC[C@@H]3c3cccc(C(F)(F)F)c3F)ncn2)c(OC)cc1N1CCOCC1 [Compound 65] | 50 to 500
13 | C=CC(=O)Nc1cc(Nc2cc(N3OCC[C@@H]3c3cccc(C(F)(F)F)c3F)ncn2)c(OC)cc1N1CCC(N2CCOCC2)CC1 [Compound 66] | < 50
14 | C=CC(=O)Nc1cc(Nc2cc(N3OCC[C@@H]3c3cccc(C(F)(F)F)c3F)ncn2)c(OC)cc1N1CCC(N2CCN(C3CC3)[C@@H](C)C2)CC1 [Compound 67] | 50 to 500
15 | C=CC(=O)Nc1cc(Nc2cc(N3OCC[C@@H]3c3cccc(C(F)(F)F)c3F)ncn2)c(OC)cc1N1CCC(N2CCN(C3CC3)[C@H](C)C2)CC1 [Compound 68] | 50 to 500
16 | C=CC(=O)Nc1cc(Nc2cc(N3OCC[C@@H]3c3cccc(C(F)(F)F)c3F)ncn2)c(OC)cc1N1CCN(C2COC2)CC1 [Compound 69] | < 50
17 | C=CC(=O)Nc1cc(Nc2cc(N3OCC[C@@H]3c3cccc(C(F)(F)F)c3F)ncn2)c(OC)cc1OCCN(C)C [Compound 70] | < 50
18 | C=CC(=O)Nc1cc(Nc2cc(N3OCC[C@@H]3c3cccc(C(F)(F)F)c3F)ncn2)c(OC)cc1N1CCC(N2CCC2)CC1 [Compound 71] | < 50
19 | C=CC(=O)Nc1cc(Nc2cc(N3OCC[C@@H]3c3cccc(C(F)(F)F)c3F)ncn2)c(OC)cc1N1CCC[C@@H]1CN1CCC1 [Compound 72] | 50 to 500
20 | C=CC(=O)Nc1cc(Nc2cc(N3OCC[C@@H]3c3cccc(C(F)(F)F)c3F)ncn2)c(OC)cc1N1CCC(N2C[C@@H](C)O[C@@H](C)C2)CC1 [Compound 73] | < 50
21 | C=CC(=O)Nc1cc(Nc2cc(N3OCC[C@@H]3c3cccc(C(F)(F)F)c3F)ncn2)c(OC)cc1N1CCC(N2CCN(C)C(=O)C2)CC1 [Compound 74] | 50 to 500
22 | C=CC(=O)Nc1cc(Nc2cc(N3OCC[C@@H]3c3cccc(C(F)(F)F)c3F)ncn2)c(OC)cc1N1CCO[C@@H](C)C1 [Compound 75] | 50 to 500
23 | C=CC(=O)Nc1cc(Nc2cc(N3OCC[C@@H]3c3cccc(C(F)(F)F)c3F)ncn2)c(OC)cc1N1CCN(C)[C@@H](C)C1 [Compound 76] | < 50
24 | C=CC(=O)Nc1cc(Nc2cc(N3OCC[C@@H]3c3cccc(C(F)(F)F)c3F)ncn2)c(OC)cc1N1CCC(N2CCCN(C3CC3)CC2)CC1 [Compound 77] | 50 to 500
25 | C=CC(=O)Nc1cc(Nc2cc(N3OCC[C@@H]3c3cccc(C(F)(F)F)c3F)ncn2)c(OC)cc1N1CCC(N2CCN(C(C)C)CC2)CC1 [Compound 78] | < 50
26 | C=CC(=O)Nc1cc(Nc2cc(N3OCC[C@@H]3c3cccc(C(F)(F)F)c3F)ncn2)c(OC)cc1N1CCO[C@H](C)C1 [Compound 79] | 50 to 500
27 | C=CC(=O)Nc1cc(Nc2cc(N3OCC[C@@H]3c3cccc(C(F)(F)F)c3F)ncn2)c(OC)cc1N1CCN(C)[C@H](C)C1 [Compound 80] | < 50

More lines, now with the values ahead:

Row | GI50 [nM] | SMILES
28 | 50 to 500 | C=CC(=O)Nc1cc(Nc2cc(N3OCC[C@@H]3c3cccc(C(F)(F)F)c3F)ncn2)c(OC)cc1N1CCN(C2CC2)CC1 [Compound 81]
29 | < 50 | C=CC(=O)Nc1cc(Nc2cc(N3OCC[C@@H]3c3cccc(C(F)(F)F)c3F)ncn2)c(OC)cc1N1CCC(N(C)C)CC1 [Compound 82]
30 | 50 to 500 | C=CC(=O)Nc1cc(Nc2cc(N3OCC[C@@H]3c3cccc(C(F)(F)F)c3F)ncn2)c(OC)cc1N1CCC(N2CCN(C3CC3)C(C)(C)C2)CC1 [Compound 83]
31 | < 50 | C=CC(=O)Nc1cc(Nc2cc(N3OCC[C@@H]3c3cccc(C(F)(F)F)c3F)ncn2)c(OC)cc1N1CCC(N2CCN(C3COC3)CC2)CC1 [Compound 84]
32 | 50 to 500 | C=CC(=O)Nc1cc(Nc2cc(N3OCC[C@@H]3c3cccc(C(F)(F)F)c3F)ncn2)c(OC)cc1N1CCN(C)C(=O)C1 [Compound 85]
33 | 50 to 500 | C=CC(=O)Nc1cc(Nc2cc(N3OCC[C@@H]3c3cccc(C(F)(F)F)c3F)ncn2)c(OC)cc1N1C[C@H]2C[C@@H]1CO2 [Compound 86]
34 | < 50 | C=CC(=O)Nc1cc(Nc2cc(N3OCC[C@@H]3c3cccc(C(F)(F)F)c3F)ncn2)c(OC)cc1N(C)CCNC [Compound 87]
35 | 50 to 500 | C=CC(=O)Nc1cc(Nc2cc(N3OCC[C@@H]3c3cccc(C(F)(F)F)c3F)ncn2)c(OC)cc1N1CC[C@@H](N(C)C)C1 [Compound 88]
36 | < 50 | C=CC(=O)Nc1cc(Nc2cc(N3OCC[C@@H]3c3cccc(C(F)(F)F)c3F)ncn2)c(OC)cc1N1CCC(N2C[C@H]3C[C@@H]2CO3)CC1 [Compound 89]
37 | < 50 | C=CC(=O)Nc1cc(Nc2cc(N3OCC[C@@H]3c3cccc(C(F)(F)F)c3F)ncn2)c(OC)cc1N1CCC(N2CCN(C)CC2)CC1 [Compound 90]
38 | 50 to 500 | C=CC(=O)Nc1cc(Nc2cc(N3OCC[C@@H]3c3cccc(C(F)(F)F)c3F)ncn2)c(OC)cc1N1CCC(N2CCN(C(C)=O)CC2)CC1 [Compound 91]
39 | 50 to 500 | C=CC(=O)Nc1cc(Nc2cc(N3OCC[C@@H]3c3cccc(C(F)(F)F)c3F)ncn2)c(OC)cc1N1C[C@@H]2C[C@H]1CO2 [Compound 92]
40 | < 50 | C=CC(=O)Nc1cc(Nc2cc(N3OCC[C@@H]3c3cccc(C(F)(F)F)c3F)ncn2)c(OC)cc1N1CCN(CCC)CC1 [Compound 93]
41 | < 50 | C=CCN1CCN(c2cc(OC)c(Nc3cc(N4OCC[C@@H]4c4cccc(C(F)(F)F)c4F)ncn3)cc2NC(=O)C=C)CC1 [Compound 94]
42 | < 50 | C=CC(=O)Nc1cc(Nc2cc(N3OCC[C@@H]3c3cccc(C(F)(F)F)c3F)ncn2)c(OC)cc1N1CC[C@@H](CN(C)C)C1 [Compound 95]
43 | < 50 | C=CC(=O)Nc1cc(Nc2cc(N3OCC[C@@H]3c3cccc(C(F)(F)F)c3F)ncn2)c(OC)cc1N1CCC(N2C[C@@H]3C[C@H]2CO3)CC1 [Compound 96]
44 | < 50 | C=CC(=O)Nc1cc(Nc2cc(N3OCC[C@@H]3c3cccc(C(F)(F)F)c3F)ncn2)c(OC)cc1N1CCC(N2CCNCC2)CC1 [Compound 97]
45 | 50 to 500 | C=CC(=O)Nc1cc(Nc2cc(N3OCC[C@@H]3c3cc(F)cc(F)c3)ccn2)c(OC)cc1N1CCC(N2CCN(C3CC3)CC2)CC1 [Compound 98]
46 | 50 to 500 | C=CC(=O)Nc1cc(Nc2cc(N3OCC[C@@H]3c3cc(F)cc(F)c3)ccn2)c(OC)cc1N(C)CCN(C)C [Compound 99]
47 | 500 to 5000 | C=CC(=O)Nc1cc(Nc2cc(N3OCC[C@@H]3c3cc(F)cc(F)c3)ccn2)c(OC)cc1N1CCN(C)CC1 [Compound 100]
48 | < 50 | C=CC(=O)Nc1cc(Nc2cc(N3OCC[C@@H]3c3cc(F)cc(F)c3)ncn2)c(OC)cc1SCCN(C)C [Compound 101]
49 | 50 to 500 | C=CC(=O)Nc1cc(Nc2cc(N3OCC[C@@H]3c3cc(F)cc(F)c3)ncn2)c(OC)cc1N1CCSCC1 [Compound 107]
50 | 50 to 500 | C=CC(=O)Nc1cc(Nc2nccc(N3OCC[C@@H]3c3ccccc3)n2)c(OC)cc1N(C)CCN(C)C [Compound 108]
51 | 50 to 500 | C=CC(=O)Nc1cc(Nc2cc(N3OCCC3c3cccc4c3cnn4C)ncn2)c(OC)cc1N1CCN(C)CC1 (stereo not drawn) [Compound 125]
52 | < 50 | C=CC(=O)Nc1cc(Nc2cc(N3OCCC3c3cccc4c3cnn4C)ncn2)c(OC)cc1N1CCC(N2CCN(C3CC3)CC2)CC1 (stereo not drawn) [Compound 126]
53 | 50 to 500 | C=CC(=O)Nc1cc(Nc2cc(N3OCC[C@@H]3c3cc(F)cc(F)c3)ncn2)c(OCC(F)(F)F)nc1N1CCN(C)CC1 [Compound 128]
54 | < 50 | C=CC(=O)Nc1cc(Nc2ncc(C(=O)OC(C)C)c(-c3cn(C)c4ccccc34)n2)c(OC)cc1N(C)CCN(C)C [TAK788, reference compound]
